Data on three compounds can be found in publication PMC11762413 (2025).

One may read the KD as the free concentration of one partner at which half of the binding sites on the other are occupied at equilibrium, for simple one-to-one binding. Low readings indicate higher affinity, high ones lower affinity.

Molecules are shown by their SMILES.

For assay [1], the system named is VAN-specific aptamer (Apt), 4trunc, in solution (DNA, aptamer) CGAGGGTACCGCAATAGTACTTATTGTTCGCCTATTGTGGGTCGG
The assay can be described thus: ITC. Conditions: 100 mM Na+, 100 mM K+, 10 mM Mg2+; 10 mM TRIS pH 7.4, 25 °C; 10 µM aptamer titrated with 150 µM VAN; independent sites.

The subject of assay [2] is VAN-specific aptamer (Apt), 4trunc, immobilised on gold (DNA, aptamer) CGAGGGTACCGCAATAGTACTTATTGTTCGCCTATTGTGGGTCGG
The assay can be described thus: SPR kinetics (koff/kon). Conditions: 100 mM Na+, 100 mM K+, 10 mM Mg2+; 10 mM TRIS pH 7.4; aptamer immobilised on gold chip; VAN 0.05–10 µM; 1:1 model.

Assay [3] has the same test system. Put plainly: EIS aptasensor selectivity. Conditions: 100 mM Na+, 100 mM K+, 10 mM Mg2+, 10 mM TRIS pH 7.4, room temperature, 45 min, tested at 1 µM.

`CN[C@H](CC(C)C)C(=O)N[C@H]1C(=O)N[C@@H](CC(N)=O)C(=O)N[C@H]2C(=O)N[C@H]3C(=O)N[C@H](C(=O)N[C@H](C(=O)O)c4cc(O)cc(O)c4-c4cc3ccc4O)[C@H](O)c3ccc(c(Cl)c3)Oc3cc2cc(c3O[C@@H]2O[C@H](CO)[C@@H](O)[C@H](O)[C@H]2O[C@H]2C[C@](C)(N)[C@H](O)[C@H](C)O2)Oc2ccc(cc2Cl)[C@H]1O`: the dissociation constant KD is reported as 13.35 ± 2.74 µM in assay [1] and 18.31 ± 1.15 µM in assay [2]. Consider `OC[C@H]1OC(O)[C@H](O)[C@@H](O)[C@@H]1O` (stereo partly shown), for which the binding entry in assay [3] (10.65% of VAN signal) is recorded as “no”. `OC[C@H]1O[C@@H](O[C@H]2[C@H](O)[C@@H](O)C(O)O[C@@H]2CO)[C@H](O)[C@@H](O)[C@H]1O` (stereo partly shown): the binding entry in assay [3] (9.78% of VAN signal) is “no”.
